{"source": "patent US20070213291A1", "about": "“Therapeutically useful synthetic oligonucleotides” (priority 1999, published 2007)", "key": {"[1]": {"test_system": "OVCAR-3 human ovarian cancer cells", "assay": "Inhibition of OVCAR-3 cell proliferation (MTT)", "assay_type": "cell-based", "conditions": "100 μg/ml, 48 h, 5×10^5 cells/ml", "procedure": "(§1) Cells were seeded in 6 (1 ml/well), 24 (0.5 ml/well) or 96 (0.1 ml/well) well flat-bottom microplates and were maintained at 37° C. in a 5% CO2 atmosphere. Unless stated otherwise, 2.5×10^5 cells/ml were incubated with 0 μg/ml (control) and 100 μg/ml (treated) of 2 to 45 base sequences containing A, C, G and T for 48 h.\n(§2) Cell proliferation was measured using dimethylthiazol-diphenyl-tetrazolium (MTT) reduction (Mosman et al. J. Immunol. Methods 65:55, 1983). MTT was measured at a wavelength of 570 nm using a multiplate spectrophotometer reader (ELX800, Bio-TEK Instruments Inc., Winooski, Vt.).\nOVCAR-3 ovarian cancer cells are a p53 mutated, p21/waf-1/Cip deleted, metastatic human solid tumor model. OVCAR-3 cells (5×10^5 cells/ml) were incubated with 2, 6 and 18 base GT sequences and with a 6 base AGT sequence (Table 11)."}, "[2]": {"test_system": "SK-OV-3 human ovarian cancer cells", "assay": "Inhibition of SK-OV-3 cell proliferation (MTT)", "assay_type": "cell-based", "conditions": "100 μg/ml, 48 h, 5×10^5 cells/ml", "procedure": "as §1, §2\nSK-OV-3 ovarian cancer cells are a p53 mutated, p21/waf-1/Cip deleted, p15^ink4B deleted, p16^Ink4 deleted, metastatichuman solid tumor model. SK-OV-3 cells (5×10^5 cells/ml) were incubated with 2, 6 and 18 base GT sequences (Table 12)."}, "[3]": {"test_system": "L-1210 murine leukemia cells", "assay": "Inhibition of L-1210 cell proliferation", "assay_type": "cell-based", "procedure": "as §1, §2"}, "caspase 3": {"test_system": "caspase 3", "assay": "Caspase 3 activation, colorimetric (p-nitroanilide peptide cleavage)", "assay_type": "cell-based, human", "conditions": "Jurkat, 72 h, 100 μg/ml", "procedure": "To determine caspase activation, control and treated cells are washed, fixed, permeabilized and incubated with an FITC-conjugated antibody that recognizes the active form of the caspase (Pharmingen, San Diego, Calif.) using the conditions recommended by the manufacturer. Fluorescence associated with active caspase 3 is analyzed by flow cytometry on a FACSCALIBUR using the program CellQUEST (Becton Dickinson). Alternatively, caspase activation is determined colorimetrically using an assay based on the cleavage of a caspase-specific peptide conjugated to the color reporter molecule p-nitroanilide, which can be quantitated spectrophotometrically at a wavelength of 405 nm.\nJurkat T cell leukemia cells were incubated for 72 h with 33 base GT SEQ ID NO:66; 11 base GT SEQ ID NO:81 (bases 1-11 of GT SEQ ID NO:66), 11 base GT SEQ ID NO:82 (bases 12-22 of GT SEQ ID NO:66), 11 base GT SEQ ID NO:83 (bases 23-33 of GT SEQ ID NO:66) and 15 base ACG SEQ ID NO:67. Active caspase 3 (17-22 kDa) was determined using FITC conjugated antibody (Clone: C92-605) as in Example 28.\nCaspase 3 activation also was determined colorimetrically as in Example 28.\nJurkat T cell leukemia cells were incubated for 72 h with 6 base GT SEQ ID NO:25. Caspase 3 activation was determined colorimetrically as in Example 28."}, "caspase 7": {"test_system": "caspase 7", "assay": "Caspase 7 activation by Western blot", "assay_type": "cell-based, human", "conditions": "Jurkat, 72 h, 100 μg/ml (FIG. 3B)", "procedure": "(§3) Jurkat T cell leukemia cells were incubated for 72 h with 6 base GT SEQ ID NO:25. The cells were washed 3× with PBS, lysed with 10 mM HEPES, pH 7.5 containing 5 mM MgCl2, 1 mM dithiothreitol, 1.5 nM aprotinin, 10 mM leupeptin and 2.5 μm Na orthovanadate, and the protein content of the lysate was determined (Bradford J. Anal. Biochem. 72:248, 1976).\n(§4) Activated caspase 7 and PARP cleavage were detected by Western blot analysis. Lysate was mixed with Laemmli buffer (Laemmli U. Nature […], 1970), shaken, and heated at 100° C. for 4 min. […] The separated proteins were electroblotted onto a PVDF membrane. Equal protein loading was monitored by Ponceau red staining of the membrane.\n(§5) The membrane was blocked overnight at 4° C. with a buffer containing 1% Tris-buffered saline (2 mM Tris-HCl, 13.7 mM NaCl, pH 7.6, and 0.1% polyethylenesorbitan monolaurate (TWEEN 20) (TBST) +5% non-fat dry milk. The membrane was washed and was incubated for 1 h at RT with a mouse monoclonal IgG anti-caspase 7 antibody (Pharmingen) (diluted 1:1000 in TBST+1% BSA) or with a mouse monoclonal IgG anti-PARP antibody (diluted 1:1000 in TBST+1% BSA) (Pharmingen). IgG bound to caspase 7 or to PARP was detected with sheep anti-mouse IgG conjugated to horseradish peroxidase (diluted 1:1000 in TBST+5% non-fat dry milk) (Pharmingen). […]"}, "PARP": {"test_system": "PARP", "assay": "PARP cleavage by Western blot", "assay_type": "cell-based, human", "conditions": "Jurkat, 72 h, 100 μg/ml (FIG. 3B)", "procedure": "as §3, §4, §5"}, "[4]": {"test_system": "LNCaP human prostate cancer cells", "assay": "LNCaP human prostate cancer xenografts in male nude nu/nu mice", "assay_type": "in vivo", "conditions": "after 4 weeks of treatment, compared with other groups (group 1 saline, group 5 BCG A-3)", "procedure": "LNCaP human prostate cancer cells are implanted subcutaneously, as xenografts, in male nude nu/nu mice. The mice are divided into 5 groups of 10 mice. On day 0, group 1 mice receive saline, group 2 mice receive 3 base SEQ ID NO:8, group 3 mice receive 6 base GT SEQ ID NO:25, group 4 mice receive 6 base AG SEQ ID NO:45 and group 5 mice receive 45 base BCG A-3 SEQ ID NO:69. After 4 weeks of treatment, the mice are sacrificed and timor mass is determined."}, "[5]": {"test_system": "EL-4 murine T lymphoma cells", "assay": "EL-4 murine T lymphoma in C57/BL6 mice", "assay_type": "in vivo", "conditions": "after 4 weeks of treatment, compared with group 1 (saline)", "procedure": "EL-4 murine T lymphoma cells are implanted into C57/BL6 mice. The mice are divided into 6 groups of 10 mice. On day 0, group 1 mice receive saline, group 2 mice receive 3 base GT SEQ ID NO:8, group 3 mice receive 6 base SEQ ID NO:25, group 4 mice receive 6 base AG SEQ ID NO:45, group 5 mice receive 18 base GT SEQ ID NO: 18 and group 6 mice receive 27 base GT SEQ ID NO:1. After 4 weeks of treatment, the mice are sacrificed and tumor mass is determined."}}, "note": "Several values for one entry are separate records, joined by “and”; a condition that tells them apart may be missing. Identical values can stand only once."}
{"sequence": "GGGTGG [SEQ ID NO:25]", "values": [{"measurement": "% INHIBITION of OVCAR-3 human ovarian cancer cell proliferation", "setting": "[1]", "value": "15% and 14%"}, {"measurement": "% INHIBITION of SK-OV-3 human ovarian cancer cell proliferation", "setting": "[2]", "value": 12, "unit": "%"}, {"measurement": "% inhibition of L-1210 murine cancer cell proliferation", "setting": "[3]", "value": 8, "unit": "%"}, {"measurement": "caspase 3 activity greater than in control cells", "setting": "caspase 3", "value": 323, "unit": "%"}, {"measurement": "processing of inactive pro-caspase 7 to active caspase 7", "setting": "caspase 7", "value": "induced processing of inactive pro-caspase 7 (30 kDa) to active caspase 7 (19-20 kDa)"}, {"measurement": "PARP cleavage", "setting": "PARP", "value": "active PARP to its inactive 85 kDa degradation product"}, {"measurement": "tumor mass", "setting": "[4]", "value": "less tumor mass than groups 1 and 5 mice"}, {"measurement": "tumor mass", "setting": "[5]", "value": "less tumor mass than group 1 mice"}]}
